The numbers were not newly measured in US20240115666A1, “COMPOSITIONS AND METHODS FOR REDUCING GAMMA-GLUTAMYLTRANSFERASE LEVELS” (Lile Method Research, LLC, priority 2022, published 2024), which cites them from elsewhere.

Take `N[C@@H](CCC(=O)N[C@@H](CS)C(=O)NCC(=O)O)C(=O)O` [glutathione, L-γ-glutamyl-L-cysteinylglycine]: the “half-life in the blood” value is “seconds to minutes”.
